The term melting point denotes the temperature of the solid-liquid transition. One may read the IC50 as the midpoint of a concentration-inhibition curve. One may read the inhibition as the drop in the measured response relative to a control, in per cent.

Structures are written as SMILES. Structures can show the parent of a compound that is named as a salt.

Results on 36 compounds are retold here after patent US6352988B2, “Indane or dihydroindole derivatives” (H. Lundbeck A/S, priority 1996, dated 2002).

Series [1] deals with T1, dopamine D4 receptors in cloned human dopamine receptor subtype 4.2 membranes (Homo sapiens, UniProt P21917, DEL271-302).
T1 sequence (P21917 with tags, fused parts or gaps DEL271-302): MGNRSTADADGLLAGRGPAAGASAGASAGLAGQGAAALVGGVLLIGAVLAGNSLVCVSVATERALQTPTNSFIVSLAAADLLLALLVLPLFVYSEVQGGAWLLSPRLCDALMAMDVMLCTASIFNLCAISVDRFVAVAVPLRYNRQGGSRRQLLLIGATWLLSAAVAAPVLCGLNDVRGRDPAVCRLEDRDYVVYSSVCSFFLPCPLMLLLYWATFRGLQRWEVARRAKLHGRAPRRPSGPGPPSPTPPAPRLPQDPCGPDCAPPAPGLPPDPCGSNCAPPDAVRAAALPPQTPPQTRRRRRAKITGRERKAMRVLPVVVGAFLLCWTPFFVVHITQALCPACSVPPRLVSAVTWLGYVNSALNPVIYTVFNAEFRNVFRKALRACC
Nature of the series: 3H-YM-09151-2 binding (affinity for dopamine D4 receptors). Conditions: 3H-YM-09151-2, cloned human D4.2 membranes; for IC50: * means that the test result is preliminary, read-out: D4-bind. IC50. The method, then:
By this method the inhibition by drugs of the binding of the dopamine D4 antagonist ^3H-YM-09151-2 to dopamine D4 receptors in cloned human dopamine receptor subtype 4.2 membranes is determined in vitro. Accordingly, this is a test for affinity for dopamine D4 receptors. The test is performed using a preparation of cloned dopamine D4 cell membranes CRM-016®, Dupharma A/S, Denmark, in accordance with the product specifications.

Regarding `COc1cc2c(cc1OC)CC(CN1CCC(c3c[nH]c4cc(Cl)ccc34)CC1)C2`, the melting point was in the range of 68 to 79 °C.

The compound `CC(=O)Nc1ccc2c(c1)CC(CN1CCC(c3c[nH]c4cc(Cl)ccc34)CC1)C2` (stereo not drawn) came in with a melting point of 151 to 152 °C.

Compound `CC(=O)Nc1ccc2c(c1)CCC2CN1CC=C(c2c[nH]c3cc(Cl)ccc23)CC1` (stereo not drawn) (as salt: fumarate) [Compound 6d, 6-Chloro-3-[1-(5-acetylamino-1-indanylmethyl)-1,2,3,6-tetrahydropyridin-4-yl]-1H-indole] returned a melting point of 241 to 242 °C.

As for `c1ccc2c(c1)CC(CN1CCN(c3ccc4[nH]ccc4c3)CC1)C2` (as salt: hydrochloride) [Compound 11f, 5-[4-(Indan-2-yl)methylpiperazin-1-yl]-1H-indole], the melting point lay within 263 to 265 °C.

`c1ccc2c(c1)CC(CCN1CCN(c3ccc4[nH]ccc4c3)CC1)C2` (as salt: hydrochloride) [Compound 25b, 5-[4-[2-(Indan-2-yl)ethyl]piperazin-1-yl]-1H-indole] yielded a melting point of 251 to 253 °C.

`CC(C)Oc1cccc2c1CC(CN1CCC(c3c[nH]c4cc(Cl)ccc34)CC1)C2` (stereo not drawn) (as salt: oxalate) returned a melting point of 119 to 126 °C.

`CC(C)Oc1cccc2c1CC(CN1CCC(c3c[nH]c4ccc(F)cc34)CC1)C2` (stereo not drawn) (as salt: oxalate) displayed a melting point of 181 to 189 °C.

For `CC(=O)Nc1ccc2c(c1)CC(CN1CC=C(c3c[nH]c4cc(Cl)ccc34)CC1)C2` (stereo not drawn) (as salt: oxalate), the melting point fell in the range of 201 to 203 °C.

`Clc1ccc2c(C3CCN(CCCCC4CCc5ccccc54)CC3)c[nH]c2c1` (stereo not drawn) (as salt: oxalate) [Compound 8f, 6-Chloro-3-[1-[4-(indan-1-yl)butan-1-yl)-piperidin-4-yl]-1H-indole] returned a melting point of 206 to 208 °C.

In turn, `Clc1ccc2c(C3=CCN(CCCCC4CCc5ccccc54)CC3)c[nH]c2c1` (stereo not drawn) (as salt: oxalate) [Compound 8h] returned a melting point of 191 to 192 °C.

As to `Clc1cccc2c(C3=CCN(CC4Cc5ccccc5C4)CC3)c[nH]c12` (as salt: oxalate) [Compound 11c, 7-Chloro-3-[1-(indan-2-yl)methyl-1,2,3,6-tetrahydropyridin-4-yl]-1H-indole], the melting point lay in the range of 135 to 136 °C.

`CC(=O)Nc1ccc2c(c1)C(CCN1CC=C(c3c[nH]c4cc(Cl)ccc34)CC1)CC2` (stereo not drawn) (as salt: oxalate) [Compound 18c] gave a melting point of 153 to 155 °C.

`CC(=O)Nc1ccc2c(c1)C(CCCN1CC=C(c3c[nH]c4cc(Cl)ccc34)CC1)CC2` (stereo not drawn) (as salt: oxalate) [Compound 18d, 6-Chloro-3-[1-[3-(6-acetylaminoindan-1-yl)propan-1-yl]-1,2,3,6-tetrahydropyridin-4-yl]-1H-indole]: the melting point is 110 to 115 °C.

The compound `CC(=O)Nc1ccc2c(c1)C(CCCCN1CC=C(c3c[nH]c4cc(Cl)ccc34)CC1)CC2` (stereo not drawn) (as salt: oxalate) [Compound 18e, 6-Chloro-3-[1-[4-(6-acetylaminoindan-1-yl)butan-1-yl]-1,2,3,6-tetrahydropyridin-4-yl]-1H-indole] registered a melting point of 125 to 128 °C.

The compound `CC(=O)N1CC(CCCN2CC=C(c3c[nH]c4cc(Cl)ccc34)CC2)c2ccccc21` (stereo not drawn) (as salt: oxalate) [Compound 20k, 3-[1-[3-(1-Acetyl-2,3-dihydro-1H-indol-3-yl)propyl]-1,2,3,6-tetrahydropyridin-4-yl]-6-chloro-1H-indole] had a melting point of 112 to 115 °C.

`Clc1cccc2c(C3CCN(CC4Cc5ccccc5C4)CC3)c[nH]c12` (as salt: oxalate) [Compound 21c, 7-Chloro-3-[1-(indan-2-ylmethyl)piperidin-4-yl]-1H-indole] came in with a melting point of 218 to 219 °C.

Consider `C1=C(n2ccc3ccccc32)CCN(CCC2Cc3ccccc3C2)C1` (as salt: oxalate) [Compound 28b, 1-[1-[2-(Indan-2-yl)ethyl]-1,2,3,6-tetrahydropyridin-4-yl]-1H-indole], for which the melting point lay in the range of 176 to 178 °C.

`CC(=O)N1CC(CCN2CC=C(c3c[nH]c4cc(Cl)ccc34)CC2)c2ccccc21` (single isomer, unassigned; (-)) [Compound 34b] returned a melting point of 168 to 169 °C. Also, in series [1], the half-maximal inhibitory concentration (IC50) worked out at 0.024 µM.

The compound `CC(=O)Nc1cccc2c1CCC2CN1CC=C(c2c[nH]c3cc(Cl)ccc23)CC1` (stereo not drawn) [Compound 6c] displayed a melting point of 189 to 190 °C. Moreover, in series [1], the IC50 turned out to be 0.012 µM.

`Clc1ccc2c(C3=CCN(CCC4CCc5ccccc54)CC3)c[nH]c2c1` (stereo not drawn) [Compound 8a, 6-Chloro-3-[1-[2-(indan-1-yl)ethyl]-1,2,3,6-tetrahydropyridine-4-yl]-1H-indole] had a melting point of 181 to 183 °C. Also, in series [1], the IC50 worked out at 0.0035 µM.

Compound `Fc1ccc2[nH]cc(C3=CCN(CCC4CCc5ccccc54)CC3)c2c1` (stereo not drawn) [Compound 8b, 5-Fluoro-3-[1-[2-(indan-1-yl)ethyl]-1,2,3,6-tetrahydropyridin-4-yl]-1H-indole] yielded a melting point of 172 to 176 °C. In series [1], the half-inhibitory concentration (IC50) came to 0.0028 µM.

Take `Fc1ccc2[nH]cc(C3=CCN(CCCCC4CCc5ccccc54)CC3)c2c1` (stereo not drawn) [Compound 8d, 5-Fluoro-3-[1-[4-(indan-1-yl)butan-1-yl]-1,2,3,6-tetrahydropyridin-4-yl]-1H-indole]: the melting point lay within 172 to 176 °C. Further, in series [1], the IC50 was determined as 0.02 µM.

The compound `C1=C(c2c[nH]c3ccccc23)CCN(CC2Cc3ccccc3C2)C1` [Compound 11b, 3-[1-(Indan-2-yl)methyl-1,2,3,6-tetrahydropyridin-4-yl]-1H-indole] yielded a melting point of 156 to 157 °C. Further, the concentration for half-maximal inhibition (IC50) in series [1] came out at 0.003 µM.

In the case of `Clc1ccc2c(C3=CCN(CC4Cc5ccccc5C4)CC3)c[nH]c2c1Cl` [Compound 11d, 6,7-Dichloro-3-[1-(indan-2-yl)methyl-1,2,3,6-tetrahydropyridin-4-yl]-1H-indole], the melting point lay within 151 to 152 °C. For the same compound, the IC50 in series [1] is 0.027 µM.

`C1=C(c2c[nH]c3cc4c(cc23)OCO4)CCN(CC2Cc3ccccc3C2)C1` [Compound 11e, 3-[1-(Indan-2-yl)methyl-1,2,3,6-tetrahydropyridin-4-yl]-5,6-methylenedioxy-1H-indole]: the melting point lay in the range of 192 to 193 °C. Besides, the IC50 in series [1] was determined as 0.016 µM.

`Clc1ccc2c(C3=CCN(CCC4Cc5ccccc5C4)CC3)c[nH]c2c1` [Compound 11g, 6-Chloro-3-[1-[2-(indan-2-yl)ethyl]-1,2,3,6-tetrahydropyridin-4-yl]-1H-indole]: the melting point was in the range of 217 to 218 °C. The IC50 in series [1] stood at 0.012 µM.

The compound `Clc1ccc2c(C3=CCN(CCCC4Cc5ccccc5C4)CC3)c[nH]c2c1` [Compound 11h, 6-Chloro-3-[1-[3-(indan-2-yl)propan-1-yl]-1,2,3,6-tetrahydropyridin-4-yl]-1H-indole] returned a melting point of 176 to 177 °C. Also, the IC50 in series [1] stood at 0.024 µM.

For the compound `Clc1ccc2c(C3=CCN(CCCCC4Cc5ccccc5C4)CC3)c[nH]c2c1` [Compound 11i, 6-Chloro-3-[1-[4-(indan-2-yl)butan-1-yl]-1,2,3,6-tetrahydropyridin-4-yl]-1H-indole], the melting point lay in the range of 211 to 214 °C. The inhibition at 0.05 µM in series [1] (at 50 nM, read-out: D4-bind. % inhibition of binding at 50 nM) stood at 37%.

`c1ccc2c(c1)CC(CN1CCC(c3c[nH]c4ccccc34)CC1)C2` [Compound 21b, 3-[1-(indan-2-ylmethyl)piperidin-4-yl]-1H-indole] gave a melting point of 146 to 147 °C. For the same compound, in series [1], the half-maximal inhibitory concentration (IC50) stood at 0.0021 µM.

On to `Clc1cccc2c(C3CCN(CC4Cc5ccccc5C4)CC3)c[nH]c12` [Compound 21c, 7-Chloro-3-[1-(indan-2-ylmethyl)piperidin-4-yl]-1H-indole], for which the concentration for half-maximal inhibition (IC50) in series [1] was 0.0018 µM.

Consider `c1ccc2c(c1)CC(CCN1CCN(c3cccc4[nH]ccc34)CC1)C2` [Compound 25a, 4-[4-[2-(Indan-2-yl)ethyl]piperazin-1-yl]-1H-indole], for which the IC50 in series [1] worked out at 0.0027 µM.

For the compound `c1ccc2c(c1)CC(CCN1CCN(c3ccc4[nH]ccc4c3)CC1)C2` [Compound 25b, 5-[4-[2-(Indan-2-yl)ethyl]piperazin-1-yl]-1H-indole], the IC50 in series [1] amounted to 0.0053 µM.

As to `Clc1ccc2c(ccn2C2=CCN(CCC3Cc4ccccc4C3)CC2)c1` [Compound 28a, 5-Chloro-1-[1-[2-(indan-2-yl)ethyl]-1,2,3,6-tetrahydropyridin-4-yl]-1H-indole], in series [1], the IC50 worked out at 0.16 µM.

On to `C1=C(n2ccc3ccccc32)CCN(CCC2Cc3ccccc3C2)C1` [Compound 28b, 1-[1-[2-(Indan-2-yl)ethyl]-1,2,3,6-tetrahydropyridin-4-yl]-1H-indole], for which the half-maximal inhibitory concentration (IC50) in series [1] was 0.014 µM.

On to `Clc1ccc2c(ccn2C2CCN(CCC3Cc4ccccc4C3)CC2)c1` [Compound 29a, 5-Chloro-1-[1-[2-(indan-2-yl)ethyl]piperidin-4-yl]-1H-indole], for which the IC50 in series [1] stood at 0.0069 µM.

Turning to `Clc1ccc2c(C3=CCN(CCC4CNc5ccccc54)CC3)c[nH]c2c1` (stereo not drawn) [Compound 30a, 6-Chloro-3-[1-[2-(2,3-dihydro-1H-indol-3-yl)ethyl]-1,2,3,6-tetrahydropyridin-4-yl]-1H-indole], the concentration for half-maximal inhibition (IC50) in series [1] is 0.0099 µM.
